Source: paper PMC7156458, “Synthetic biology based construction of biological activity-related library of fungal decalin-containing diterpenoid pyrones” (Nature Communications, 2020)

Biological target: Aβ42 (Homo sapiens, UniProt P05067)
Assay: Th-T (thioflavin-T) assay of Aβ42 aggregation
Format: biochemical

Chain of Aβ42 (P05067 672-713): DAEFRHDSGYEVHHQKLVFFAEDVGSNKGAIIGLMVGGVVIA

Structure (SMILES): C=C1CC[C@@H]2[C@](C)(CC[C@H]3O[C@H](C=C(C)C)C[C@@]23C)[C@@H]1Cc1c(OC)oc(CO)c(C(=O)OC)c1=O [Compound 21]
- Fig. 7a Th-T reading, mean of three wells (column suffix _20, reading M101): 0.9158
- Fig. 7a Th-T reading, mean of three wells (column suffix _20, reading M102): 0.9188
- Fig. 7a Th-T reading, mean of three wells (column suffix _20, reading M103): 0.9187
- Fig. 7a Th-T reading, mean of three wells (column suffix _20, reading M104): 0.9595
- Fig. 7a Th-T reading, mean of three wells (column suffix _20, reading M105): 0.9387
- Fig. 7a Th-T reading, mean of three wells (column suffix _20, reading M106): 0.9399
- Th-T fluorescence, mean of three wells (Fig. 7a) (column suffix _50, measurement M19): 0.2078
- Th-T fluorescence, mean of three wells (Fig. 7a) (column suffix _50, measurement M20): 0.2087
- Th-T fluorescence, mean of three wells (Fig. 7a) (column suffix _50, measurement M21): 0.2125
- Th-T fluorescence, mean of three wells (Fig. 7a) (column suffix _50, measurement M22): 0.212
- Th-T fluorescence, mean of three wells (Fig. 7a) (column suffix _50, measurement M23): 0.2107
- Th-T fluorescence, mean of three wells (Fig. 7a) (column suffix _50, measurement M24): 0.2101
- Th-T fluorescence, mean of three wells (Fig. 7a) (column suffix _50, measurement M25): 0.2098
- Th-T fluorescence, mean of three wells (Fig. 7a) (column suffix _50, measurement M26): 0.2113
- Th-T fluorescence, mean of three wells (Fig. 7a) (column suffix _50, measurement M27): 0.2118
- Th-T fluorescence, mean of three wells (Fig. 7a) (column suffix _50, measurement M28): 0.2093
- Th-T fluorescence, mean of three wells (Fig. 7a) (column suffix _50, measurement M29): 0.2091
- Th-T assay signal, mean of three wells (Fig. 7a) (column suffix _50, reading M1): 0.2216
- Th-T assay signal, mean of three wells (Fig. 7a) (column suffix _50, reading M2): 0.219
- Th-T assay signal, mean of three wells (Fig. 7a) (column suffix _50, reading M3): 0.2148
- Th-T assay signal, mean of three wells (Fig. 7a) (column suffix _50, reading M4): 0.2093
- Th-T assay signal, mean of three wells (Fig. 7a) (column suffix _50, reading M5): 0.2111
- Th-T assay signal, mean of three wells (Fig. 7a) (column suffix _50, reading M6): 0.209
- Th-T assay signal, mean of three wells (Fig. 7a) (column suffix _50, reading M7): 0.2096
- Th-T assay signal, mean of three wells (Fig. 7a) (column suffix _50, reading M8): 0.2075
- Th-T assay signal, mean of three wells (Fig. 7a) (column suffix _50, reading M9): 0.2085
- Th-T assay signal, mean of three wells (Fig. 7a) (column suffix _50, reading M10): 0.2097
- Th-T assay signal, mean of three wells (Fig. 7a) (column suffix _50, reading M11): 0.2085
- Th-T assay signal, mean of three wells (Fig. 7a) (column suffix _50, reading M12): 0.2082
- Th-T assay signal, mean of three wells (Fig. 7a) (column suffix _50, reading M13): 0.2085
- Th-T assay signal, mean of three wells (Fig. 7a) (column suffix _50, reading M14): 0.2061
- Th-T assay signal, mean of three wells (Fig. 7a) (column suffix _50, reading M15): 0.2099
- Th-T assay signal, mean of three wells (Fig. 7a) (column suffix _50, reading M16): 0.2095
- Th-T assay signal, mean of three wells (Fig. 7a) (column suffix _50, reading M17): 0.2108
- Th-T assay signal, mean of three wells (Fig. 7a) (column suffix _50, reading M18): 0.2093
- Fig. 7a Th-T reading, mean of three wells (column suffix _50, reading M85): 0.38
- Fig. 7a Th-T reading, mean of three wells (column suffix _50, reading M86): 0.3921
- Fig. 7a Th-T reading, mean of three wells (column suffix _50, reading M87): 0.401
- Fig. 7a Th-T reading, mean of three wells (column suffix _50, reading M88): 0.4081
- Fig. 7a Th-T reading, mean of three wells (column suffix _50, reading M89): 0.4167
- Fig. 7a Th-T reading, mean of three wells (column suffix _50, reading M90): 0.4233
- Fig. 7a Th-T reading, mean of three wells (column suffix _50, reading M91): 0.4313
- Fig. 7a Th-T reading, mean of three wells (column suffix _50, reading M92): 0.4386
- Fig. 7a Th-T reading, mean of three wells (column suffix _50, reading M93): 0.4449
- Fig. 7a Th-T reading, mean of three wells (column suffix _50, reading M94): 0.4505
- Fig. 7a Th-T reading, mean of three wells (column suffix _50, reading M95): 0.4544
- Fig. 7a Th-T reading, mean of three wells (column suffix _50, reading M96): 0.4583
- Fig. 7a Th-T reading, mean of three wells (column suffix _50, reading M97): 0.4639
- Fig. 7a Th-T reading, mean of three wells (column suffix _50, reading M98): 0.4638
- Fig. 7a Th-T reading, mean of three wells (column suffix _50, reading M99): 0.4696
- Fig. 7a Th-T reading, mean of three wells (column suffix _50, reading M100): 0.4671
- Fig. 7a Th-T reading, mean of three wells (column suffix _50, reading M101): 0.4718
- Fig. 7a Th-T reading, mean of three wells (column suffix _50, reading M102): 0.4727
- Fig. 7a Th-T reading, mean of three wells (column suffix _50, reading M103): 0.4762
- Fig. 7a Th-T reading, mean of three wells (column suffix _50, reading M104): 0.4757
- Fig. 7a Th-T reading, mean of three wells (column suffix _50, reading M105): 0.4769
- Fig. 7a Th-T reading, mean of three wells (column suffix _50, reading M106): 0.4817
- Th-T fluorescence, mean of three wells (compound at 10, reading M41 of time course): 0.2566
- Th-T fluorescence, mean of three wells (compound at 10, reading M42 of time course): 0.2579
- Th-T fluorescence, mean of three wells (compound at 10, reading M43 of time course): 0.2567
- Th-T fluorescence, mean of three wells (compound at 10, reading M44 of time course): 0.2585
- Th-T fluorescence, mean of three wells (compound at 10, reading M45 of time course): 0.2609
- Th-T fluorescence, mean of three wells (compound at 10, reading M46 of time course): 0.2644
- Th-T fluorescence, mean of three wells (compound at 10, reading M47 of time course): 0.2626
- Th-T fluorescence, mean of three wells (compound at 10, reading M48 of time course): 0.2676
- Th-T fluorescence, mean of three wells (compound at 10, reading M49 of time course): 0.2662
- Th-T fluorescence, mean of three wells (compound at 10, reading M50 of time course): 0.2709
- Th-T fluorescence, mean of three wells (compound at 10, reading M51 of time course): 0.2759
- Th-T fluorescence, mean of three wells (compound at 10, reading M52 of time course): 0.2782
- Th-T fluorescence, mean of three wells (compound at 10, reading M53 of time course): 0.2826
- Th-T fluorescence, mean of three wells (compound at 10, reading M54 of time course): 0.2883
- Th-T fluorescence, mean of three wells (compound at 10, reading M55 of time course): 0.2969
- Th-T fluorescence, mean of three wells (compound at 10, reading M56 of time course): 0.3032
- Th-T fluorescence, mean of three wells (compound at 10, reading M57 of time course): 0.3204
- Th-T fluorescence, mean of three wells (compound at 10, reading M58 of time course): 0.3339
- Th-T fluorescence, mean of three wells (compound at 10, reading M59 of time course): 0.3536
- Th-T fluorescence, mean of three wells (compound at 10, reading M60 of time course): 0.3831
- Th-T fluorescence, mean of three wells (compound at 10, reading M61 of time course): 0.414
- Th-T fluorescence, mean of three wells (compound at 10, reading M62 of time course): 0.4619
- Th-T fluorescence, mean of three wells (compound at 20, reading M41 of time course): 0.2134
- Th-T fluorescence, mean of three wells (compound at 20, reading M42 of time course): 0.2125
- Th-T fluorescence, mean of three wells (compound at 20, reading M43 of time course): 0.2115
- Th-T fluorescence, mean of three wells (compound at 20, reading M44 of time course): 0.212
- Th-T fluorescence, mean of three wells (compound at 20, reading M45 of time course): 0.2129
- Th-T fluorescence, mean of three wells (compound at 20, reading M46 of time course): 0.214
- Th-T fluorescence, mean of three wells (compound at 20, reading M47 of time course): 0.2155
- Th-T fluorescence, mean of three wells (compound at 20, reading M48 of time course): 0.2155
- Th-T fluorescence, mean of three wells (compound at 20, reading M49 of time course): 0.2153
- Th-T fluorescence, mean of three wells (compound at 20, reading M50 of time course): 0.2164
- Th-T fluorescence, mean of three wells (compound at 20, reading M51 of time course): 0.2208
- Th-T fluorescence, mean of three wells (compound at 20, reading M52 of time course): 0.2184
- Th-T fluorescence, mean of three wells (compound at 20, reading M53 of time course): 0.2214
- Th-T fluorescence, mean of three wells (compound at 20, reading M54 of time course): 0.2246
- Th-T fluorescence, mean of three wells (compound at 20, reading M55 of time course): 0.224
- Th-T fluorescence, mean of three wells (compound at 20, reading M56 of time course): 0.2282
- Th-T fluorescence, mean of three wells (compound at 20, reading M57 of time course): 0.2293
- Th-T fluorescence, mean of three wells (compound at 20, reading M58 of time course): 0.2297
- Th-T fluorescence, mean of three wells (compound at 20, reading M59 of time course): 0.2309
- Th-T fluorescence, mean of three wells (compound at 20, reading M60 of time course): 0.2314
- Th-T fluorescence, mean of three wells (compound at 20, reading M61 of time course): 0.2372
- Th-T fluorescence, mean of three wells (compound at 20, reading M62 of time course): 0.2381
- Th-T fluorescence, mean of three wells (compound at 50, reading M41 of time course): 0.2143
- Th-T fluorescence, mean of three wells (compound at 50, reading M42 of time course): 0.2133
- Th-T fluorescence, mean of three wells (compound at 50, reading M43 of time course): 0.2141
- Th-T fluorescence, mean of three wells (compound at 50, reading M44 of time course): 0.2135
- Th-T fluorescence, mean of three wells (compound at 50, reading M45 of time course): 0.2151
- Th-T fluorescence, mean of three wells (compound at 50, reading M46 of time course): 0.2145
- Th-T fluorescence, mean of three wells (compound at 50, reading M47 of time course): 0.2129
- Th-T fluorescence, mean of three wells (compound at 50, reading M48 of time course): 0.2151
- Th-T fluorescence, mean of three wells (compound at 50, reading M49 of time course): 0.2127
- Th-T fluorescence, mean of three wells (compound at 50, reading M50 of time course): 0.2161
- Th-T fluorescence, mean of three wells (compound at 50, reading M51 of time course): 0.2181
- Th-T fluorescence, mean of three wells (compound at 50, reading M52 of time course): 0.2182
- Th-T fluorescence, mean of three wells (compound at 50, reading M53 of time course): 0.2185
